Reference: article PMC12187842, “A novel molecule targeting neutrophil-mediated B-1a cell trogocytosis attenuates sepsis-induced acute lung injury” (Frontiers in Immunology, 2025)

Experiments:
Assay type in all cases: in vivo, mouse
[1] = tested on: neutrophil-mediated B-1a cell trogocytosis; assay: Neutrophil-mediated B-1a cell trogocytosis by flow cytometry after C11 treatment in CLP mice; settings: C11 10 mg/kg i.p. once immediately after CLP; cells isolated 4 h after CLP; CFSE-positive events within Ly6G-positive neutrophils; n = 5-6/group; p < 0.05 vs. C11 (-)
Text: (§1) Mice were anesthetized with 2% isoflurane in oxygen, and sepsis was induced via cecal ligation and puncture (CLP) ([26]). A 1-cm midline abdominal incision was made to expose the cecum, which was ligated 1-cm proximal to its end using a 4-0 silk suture. The cecum then was perforated with a single through-and-through puncture using a 22-gauge needle, positioned midway between the ligation and the tip of the cecum. A small amount of fecal material was gently extruded from the perforation sites to confirm the patency of the punctures, and the cecum was subsequently returned to the peritoneal cavity. Following abdominal closure, resuscitation was provided via subcutaneous (s.c.) injection of 500 µL normal saline. […]
B-1a cells (target cells) were isolated, and dead cells were removed using the EasySep Dead Cell Removal Kit (Cat. No. 17899, STEMCELL Technologies). […] Trogocytosis was evaluated using confocal imaging (LSM900; Zeiss, Oberkochen, Germany) to visualize the interaction between neutrophils and B-1a cells. NucBlue Live ReadyProbes Reagent (Thermo Fisher Scientific) was used for nuclear staining. For quantitative analysis, trogocytosis was assessed by flow cytometry, where CFSE (Carboxyfluorescein succinimidyl ester)-positive events within Ly6G-positive neutrophil populations were quantified as indicators of trogocytosis. […]

[2] = tested on: CLP-induced sepsis in C57BL/6 mice; assay: Plasma pro-inflammatory cytokines in CLP mice by ELISA; settings: C11 10 mg/kg i.p. once after CLP (Figure 5 legend: 10 μg/kg); 20 h; n = 5-7/group; p < 0.05 vs. CLP vehicle
Text: as §1, with “saline. Postoperative analgesia was administered with a single dose of 0.1 mg/kg buprenorphine.” for “saline.”
Blood was collected by heart puncture. Plasma levels of organ injury markers (ALT: alanine transaminase, AST: aspartate transferase, and LDH: lactate dehydrogenase) were assessed by using colorimetric enzymatic assays (MedTest Dx, Canton, MI) according to the manufacturer’s protocol. Plasma levels of pro-inflammatory cytokines (TNFα: tumor necrosis factor α, and IL-6: interleukin-6) were measured by using mouse-specific ELISA kits (BD Biosciences).

[3] = tested on: CLP-induced sepsis in C57BL/6 mice; assay: Lung tissue mRNA expression in CLP mice by real-time qPCR; settings: C11 10 mg/kg i.p. once after CLP (Figure 5 legend: 10 μg/kg); 20 h; normalized to β-actin; n = 5-7/group; vs. CLP vehicle
Text: (§2) Mice were anesthetized with 2% isoflurane in oxygen, and sepsis was induced via cecal ligation and puncture (CLP) ([26]). A 1-cm midline abdominal incision was made to expose the cecum, which was ligated 1-cm proximal to its end using a 4-0 silk suture. The cecum then was perforated with a single through-and-through puncture using a 22-gauge needle, positioned midway between the ligation and the tip of the cecum. A small amount of fecal material was gently extruded from the perforation sites to confirm the patency of the punctures, and the cecum was subsequently returned to the peritoneal cavity. Following abdominal closure, resuscitation was provided via subcutaneous (s.c.) injection of 500 µL normal saline. Postoperative analgesia was administered with a single dose of 0.1 mg/kg buprenorphine. To evaluate the effects of the therapeutic peptide (named Compound 11 or C11) (synthesized by GenScript USA Inc., Piscataway, NJ) on sepsis, C57BL/6 mice were assigned to three experimental groups: the Sham group, the CLP group treated with vehicle, and the CLP group treated with C11 (10 mg/kg). C11 was dissolved in DMSO (10 mg/mL) and diluted with saline to a total volume of 500 µL. The peptide was administered once, immediately after surgery, via intraperitoneal (i.p.) injection. Mice in the vehicle group received an equivalent volume of DMSO and normal saline via i.p. injection. After 20 h, lungs were harvested, and blood was collected via cardiac puncture. For the survival study, animals received a single subcutaneous (s.c.) injection of 0.5 mg/kg imipenem at the end of the CLP.
Total RNA was extracted from lungs using a TRIzol reagent (Thermo Fisher Scientific) according to the manufacturer’s instructions. cDNA was synthesized using M-MLV reverse transcriptase (Thermo Fisher Scientific). Quantitative real-time PCR (qPCR) was performed using SYBR Green PCR Master Mix (Thermo Fisher Scientific) with a StepOnePlus Real-Time PCR thermocycler (Thermo Fisher Scientific). Mouse β-actin served as an endogenous control to normalize mRNA levels using the comparative Ct method. […]

[4] = tested on: CLP-induced sepsis in C57BL/6 mice; assay: Lung wet-to-dry weight ratio in CLP mice; settings: C11 10 mg/kg i.p. once after CLP (Figure 5 legend: 10 μg/kg); 20 h; n = 5-7/group; vs. CLP vehicle
Text: as §2, with “The peptide was administered once, immediately after surgery, via intraperitoneal (i.p.) injection. Mice in the vehicle group received an equivalent volume of DMSO and normal saline via i.p. injection. After 20 h, lungs were harvested, and blood was collected via cardiac puncture. For the survival study, animals received a single subcutaneous (s.c.) injection of 0.5 mg/kg imipenem at the end of the CLP.” left out
Lung wet and dry weights were measured as previously described ([30]). […] The wet-to-dry weight ratio was calculated as an indicator of pulmonary edema.

[5] = tested on: CLP-induced sepsis in C57BL/6 mice; assay: TUNEL assay of lung tissue in CLP mice; settings: C11 10 mg/kg i.p. once after CLP (Figure 5 legend: 10 μg/kg); 20 h; n = 5-7/group; vs. CLP vehicle
Text: as §1, with “saline. Postoperative analgesia was administered with a single dose of 0.1 mg/kg buprenorphine.” for “saline.”
To determine cellular apoptosis we used a TUNEL assay kit (Roche Diagnostics, Indianapolis, IN) using 5-μm lung sections by following the manufacturer’s instructions. […] The TUNEL-positive cells were assessed by LSM900 confocal microscope (Zeiss) microscopes. The number of apoptotic cells/fields was quantified using ImageJ, Fiji software (version 1.53k).

126-ELKNRTVSWFS-136 [Compound C11]
neutrophil-mediated B-1a cell trogocytosis [1]: significantly reduced | plasma IL-6 [2]: significantly reduced | plasma TNF-α [2]: significantly reduced | lung tissue CXCL1 (KC) mRNA [3]: significantly reduced | lung tissue CXCL2 (MIP-2) mRNA [3]: significantly reduced | lung tissue IL-6 mRNA [3]: significantly reduced | sepsis-induced pulmonary edema (lung wet-to-dry ratio) [4]: effectively reduced | lung apoptosis (TUNEL+ cells) [5]: reduced tissue damage and apoptosis
